The source of these data is PubChem BioAssay AID2053 (NMMLSC, 2009).

Molecules are shown by their SMILES.

A word on the Ki: it is the dissociation constant of the complex between target and ligand, obtained from inhibition or displacement.

This test deals with GTPase HRas (Homo sapiens) (UniProt P01112). The experiment in a line: Ras wild-type GTP-binding inhibitors, SAR follow-up, biochemical, oxadiazole analogs, multiplex bead flow cytometry (AID 2053). The conditions noted are these: GST-Ras beads, Bodipy-FL-GTP binding, Ki calculated from EC50.
Sequence of GTPase HRas (Homo sapiens) (P01112 whole entry, looked up): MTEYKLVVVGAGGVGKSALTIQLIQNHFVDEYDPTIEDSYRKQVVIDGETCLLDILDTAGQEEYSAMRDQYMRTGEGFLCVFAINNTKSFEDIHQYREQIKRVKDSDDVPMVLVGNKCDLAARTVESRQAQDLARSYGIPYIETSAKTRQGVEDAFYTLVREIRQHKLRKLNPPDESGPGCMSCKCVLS
Turning to `COc1ccc(-c2noc(CCC(=O)N3CCN(c4ccccc4Cl)CC3)n2)cc1`, the Ki is 290 nM.

Consider `Cc1ccc(C)c(N2CCN(C(=O)CCc3nc(-c4ccc(Br)cc4)no3)CC2)c1`, for which the Ki was 290 nM.

Take `COc1ccc(-c2noc(CCC(=O)N3CCN(c4ccccc4F)CC3)n2)cc1`: the Ki is 10 nM. In the case of `Cc1ccc(C)c(N2CCN(C(=O)CCc3nc(-c4ccccc4Br)no3)CC2)c1`, the Ki is 10 nM. Regarding `COc1cccc(-c2noc(CCC(=O)N3CCN(c4cc(C)ccc4C)CC3)n2)c1`, the Ki is 230 nM. On to `Cc1ccc(C)c(N2CCN(C(=O)CCc3nc(-c4ccccc4)no3)CC2)c1`, for which the Ki was 140 nM. Turning to `COc1ccc(-c2noc(CCC(=O)N3CCN(c4cc(C)ccc4C)CC3)n2)cc1`, the Ki was 270 nM.
